Measured values as given in ChEMBL document CHEMBL3872266, “Synthesis and characterization of novel, conjugated, fluorescent DNJ derivatives for α-glucosidase recognition” (Bioorg Med Chem, 2017).

Columns and labels:
[1] = Inhibition of rice alpha-glucosidase assessed as reduction in production of D-glucose using disaccharides as substrate incubated for 10 to 30 mins; design: species or system Oryza sativa
[2] = Inhibition of rat small intestinal brush border membrane maltase assessed as reduction in production of D-glucose using maltose as substrate incubated for 10 to 30 mins
[3] = Inhibition of rat small intestinal brush border membrane cellobiase assessed as reduction in production of D-glucose using disaccharides as substrate incubated for 10 to 30 mins
[4] = biological target: T1, Sucrase-isomaltase, intestinal (Rattus norvegicus, UniProt P23739); assay: Inhibition of rat small intestinal brush border membrane isomaltase assessed as reduction in production of D-glucose using disaccharides as substrate incubated for 10 to 30 mins
T1 sequence (P23739 1-1013 limits assumed): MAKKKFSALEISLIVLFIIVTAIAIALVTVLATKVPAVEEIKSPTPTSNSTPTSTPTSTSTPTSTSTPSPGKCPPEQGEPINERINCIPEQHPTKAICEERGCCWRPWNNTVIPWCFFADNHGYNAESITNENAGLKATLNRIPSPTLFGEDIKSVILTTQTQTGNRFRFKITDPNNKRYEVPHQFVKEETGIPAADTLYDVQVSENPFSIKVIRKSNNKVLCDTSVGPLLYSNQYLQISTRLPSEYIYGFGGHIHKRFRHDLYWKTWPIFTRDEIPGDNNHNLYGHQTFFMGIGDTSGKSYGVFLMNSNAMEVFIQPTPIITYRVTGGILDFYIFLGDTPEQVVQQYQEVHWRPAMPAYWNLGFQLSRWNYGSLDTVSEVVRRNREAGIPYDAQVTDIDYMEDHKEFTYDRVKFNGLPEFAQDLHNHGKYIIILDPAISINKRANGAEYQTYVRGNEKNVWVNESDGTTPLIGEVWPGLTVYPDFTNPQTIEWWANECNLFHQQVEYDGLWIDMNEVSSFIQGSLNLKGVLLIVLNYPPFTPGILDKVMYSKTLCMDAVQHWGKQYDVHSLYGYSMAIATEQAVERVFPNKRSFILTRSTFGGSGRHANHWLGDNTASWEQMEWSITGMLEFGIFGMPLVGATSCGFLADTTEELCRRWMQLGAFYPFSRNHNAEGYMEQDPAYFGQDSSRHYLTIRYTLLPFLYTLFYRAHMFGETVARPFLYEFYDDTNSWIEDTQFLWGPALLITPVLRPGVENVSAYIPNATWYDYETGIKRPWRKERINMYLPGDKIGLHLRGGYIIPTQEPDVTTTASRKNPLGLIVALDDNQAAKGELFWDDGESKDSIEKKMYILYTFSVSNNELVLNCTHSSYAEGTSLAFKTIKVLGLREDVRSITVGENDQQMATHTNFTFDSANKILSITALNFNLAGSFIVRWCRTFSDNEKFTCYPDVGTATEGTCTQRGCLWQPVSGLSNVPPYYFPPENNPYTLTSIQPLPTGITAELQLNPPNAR
T1 sequence (P23739 1014-1841 limits assumed): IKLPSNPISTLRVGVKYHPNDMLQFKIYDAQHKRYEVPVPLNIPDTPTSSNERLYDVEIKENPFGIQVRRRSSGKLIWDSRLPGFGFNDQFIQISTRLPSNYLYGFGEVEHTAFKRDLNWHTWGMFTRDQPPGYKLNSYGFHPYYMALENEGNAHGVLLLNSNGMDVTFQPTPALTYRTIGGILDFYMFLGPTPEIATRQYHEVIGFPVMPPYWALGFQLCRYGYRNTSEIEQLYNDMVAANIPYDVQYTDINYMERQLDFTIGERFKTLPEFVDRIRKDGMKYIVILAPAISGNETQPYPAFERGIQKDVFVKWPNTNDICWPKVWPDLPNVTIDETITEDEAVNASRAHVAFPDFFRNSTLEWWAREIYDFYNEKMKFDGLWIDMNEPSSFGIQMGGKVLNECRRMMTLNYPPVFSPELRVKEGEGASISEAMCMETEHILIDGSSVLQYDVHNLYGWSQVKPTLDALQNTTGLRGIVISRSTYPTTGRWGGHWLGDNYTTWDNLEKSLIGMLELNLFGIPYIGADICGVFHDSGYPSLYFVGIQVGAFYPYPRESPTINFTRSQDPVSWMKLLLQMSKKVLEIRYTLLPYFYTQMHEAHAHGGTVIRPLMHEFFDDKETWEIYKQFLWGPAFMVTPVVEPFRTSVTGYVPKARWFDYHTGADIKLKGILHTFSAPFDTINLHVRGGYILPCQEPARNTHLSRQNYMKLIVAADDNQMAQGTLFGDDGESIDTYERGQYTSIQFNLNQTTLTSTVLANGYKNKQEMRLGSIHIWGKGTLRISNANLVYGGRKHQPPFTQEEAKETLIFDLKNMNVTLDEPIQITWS

[5] = Inhibition of almond beta-glucosidase assessed as reduction in production of D-glucose using disaccharides as substrate incubated for 10 to 30 mins; design: species or system Prunus dulcis
[6] = biological target: T1, Sucrase-isomaltase, intestinal; assay: Inhibition of rat small intestinal brush border membrane sucrase assessed as reduction in production of D-glucose using disaccharides as substrate incubated for 10 to 30 mins

Row | IC50 [1] [nM] | IC50 [2] [nM] | IC50 [3] [nM] | IC50 [4] [nM] | IC50 [5] [nM] | IC50 [6] [nM] | SMILES
1 | 57 | 540 | 219000 | 4100 | 3800 | 950 | O=c1cc(C(F)(F)F)c2ccc(OCCCCn3cc(CCCCN4C[C@H](O)[C@@H](O)[C@H](O)[C@H]4CO)nn3)cc2o1
2 | 2100 | 650 | 175000 | 6300 | – | 2700 | O=c1ccc2nc3ccc(OCCCCn4cc(CCCCN5C[C@H](O)[C@@H](O)[C@H](O)[C@H]5CO)nn4)cc3oc-2c1
3 | 110 | 100 | 304000 | 13600 | – | 1400 | CCN(CC)c1ccc2cc(C(=O)NCCOCCOCCOCCn3cc(CCCCN4C[C@H](O)[C@@H](O)[C@H](O)[C@H]4CO)nn3)c(=O)oc2c1
4 | 42 | 150 | 53600 | 1400 | 9300 | 540 | Cc1cc(=O)oc2cc(OCCCCn3cc(CCCCN4C[C@H](O)[C@@H](O)[C@H](O)[C@H]4CO)nn3)ccc12
5 | 91 | 910 | 414000 | 4600 | 97800 | 1900 | CN(C)c1cccc2c(S(=O)(=O)NCCOCCn3cc(CCCCN4C[C@H](O)[C@@H](O)[C@H](O)[C@H]4CO)nn3)cccc12
6 | 50 | – | 327000 | – | 85000 | – | OC[C@H]1NC[C@H](O)[C@@H](O)[C@@H]1O [DUVOGLUSTAT]
7 | 99 | 590 | 164000 | – | 378000 | – | OCCN1C[C@H](O)[C@@H](O)[C@H](O)[C@H]1CO [MIGLITOL]
